A short description of one data set: Microsome stability. Type of data set: in vitro ADME, human. The following applies: 1 μM. As to the method:
Compounds were sent to BioFocus for measurement of their stability @ 1 μM concentration following incubation with rat liver microsomes for 40 minutes @ 37°.

The subject of data set [1] is maximal electroshock-induced tonic convulsions. Put plainly: Rat MES (Maximal ElectroShock) anticonvulsant test. Type of data set: in vivo. The following applies: for MES Results (% protection): n = 5 rats; for ED50: Rattus norvegicus, po. On the procedure: Male Wistar rats provided by BioLasco Taiwan (under Charles River Laboratories Technology Licensee) were used. Space allocation for 5 animals was 45×23×21 cm. Animals were housed in animal cages and maintained in a controlled temperature (21-23° C.) and humidity (50%-70%) environment with 12 hours light/dark cycles for at least three days in MDS Pharma Services—Taiwan Laboratory prior to use. Free access to standard lab chow for rats [MF-18 (Oriental Yeast Co., Ltd. Japan)] and reverse osmosis (RO) water were granted ad libitum. All aspects of this work including housing, experimentation and disposal of animals were performed in general accordance with the Guide for the Care and Use of Laboratory Animals (National Academy Press, Washington, D.C., 1996).
Test compounds were suspended/dissolved in 2% Tween 80 and dosed orally at a dose volume of 10 ml/Kg to groups of 5 Wistar male rats weighing 180+/−20 g, one hour before maximal electroshock (MES, 60 Hz sine wave, 150 mA, 200 msec duration) was applied through corneal electrodes. Appearance of maximal electroshock-induced tonic convulsions (MES) was determined for each animal. 50 percent or more (50%) inhibition of tonic convulsions by test substance indicates significant anticonvulsant activity.
Test substances (CEN-216, CEN-145, CEN-148, CEN-152 and CEN-154) at 14, 42 or 100 mg/kg were administered orally to groups of 5 Wistar derived male rats weighing 180±20 g.
In rat model of epilepsy (Maximal ElectroShock—MES), in which compounds were dosed orally one hour prior to ‘shock’, the ED50 (effective dose to protect 50% of rats from limb extension etc.) for CEN-216 is approx 9 mg/kg free base.

In a further data set the test system is L-Type Calcium Channels. Put plainly: L-type calcium channel binding ([3H]nitrendipine, rat cerebral cortex membranes). The source says: Compounds were sent to MDS Pharma for measurement of their inhibition @ […] of the binding of [^3H]nitrendipine to rat cerebral cortex membranes.
A further data set has as its system Sodium Channel, Site 2. Put plainly: Inhibition of binding of [3H]BTX-B to Wistar rat brain.
Data set [2] concerns maximal electroshock (MES). Kind of data set: Mouse MES model of epilepsy. In kind it is in vivo. The following applies: 72 mg/Kg (free base) po. As to the method: In mouse model of epilepsy (MES), compounds CEN-079 and CEN-216 were dosed orally (100 and 72 mg/kg free base respectively) @ 1 h, 6 h and 24 h prior to ‘shock).
For a further data set, the target named is T1, hERG (Homo sapiens, UniProt Q12809).
T1 construct: host or cells: HEK-293
T1 sequence (Q12809 whole entry): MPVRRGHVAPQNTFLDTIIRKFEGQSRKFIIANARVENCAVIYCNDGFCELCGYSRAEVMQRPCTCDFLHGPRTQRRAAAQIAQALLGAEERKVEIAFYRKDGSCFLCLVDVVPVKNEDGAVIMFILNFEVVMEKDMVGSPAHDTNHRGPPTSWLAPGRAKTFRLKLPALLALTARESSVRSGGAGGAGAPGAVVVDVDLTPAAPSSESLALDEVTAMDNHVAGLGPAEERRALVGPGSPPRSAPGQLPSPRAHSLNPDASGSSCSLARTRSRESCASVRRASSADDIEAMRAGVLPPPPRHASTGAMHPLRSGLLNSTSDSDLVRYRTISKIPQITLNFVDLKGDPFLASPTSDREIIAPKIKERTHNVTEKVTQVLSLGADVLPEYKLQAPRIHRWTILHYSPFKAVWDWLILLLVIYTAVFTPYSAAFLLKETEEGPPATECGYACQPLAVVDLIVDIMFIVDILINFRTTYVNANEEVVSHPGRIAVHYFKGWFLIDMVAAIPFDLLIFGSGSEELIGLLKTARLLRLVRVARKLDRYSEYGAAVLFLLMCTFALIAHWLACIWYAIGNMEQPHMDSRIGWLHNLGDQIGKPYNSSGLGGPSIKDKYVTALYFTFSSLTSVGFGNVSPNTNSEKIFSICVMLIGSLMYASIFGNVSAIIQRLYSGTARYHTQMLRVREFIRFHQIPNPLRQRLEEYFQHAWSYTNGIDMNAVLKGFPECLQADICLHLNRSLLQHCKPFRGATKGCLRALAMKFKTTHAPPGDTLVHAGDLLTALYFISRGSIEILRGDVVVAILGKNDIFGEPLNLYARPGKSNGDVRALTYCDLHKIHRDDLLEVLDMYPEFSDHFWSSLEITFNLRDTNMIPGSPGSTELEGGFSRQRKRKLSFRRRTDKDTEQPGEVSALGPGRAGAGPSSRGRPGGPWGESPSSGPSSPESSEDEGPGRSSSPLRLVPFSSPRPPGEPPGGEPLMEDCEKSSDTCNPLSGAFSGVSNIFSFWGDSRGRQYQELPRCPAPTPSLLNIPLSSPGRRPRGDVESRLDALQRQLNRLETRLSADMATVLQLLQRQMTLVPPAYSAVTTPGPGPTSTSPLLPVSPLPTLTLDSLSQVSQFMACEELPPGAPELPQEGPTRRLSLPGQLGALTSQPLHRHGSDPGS
Put plainly: Inhibition of binding of [3H]astemizole to HEK-293 cells expressing hERG. Particulars: for inhibition at 10 µM: human, HEK-293 cells expressing human recombinant hERG, probe [3H]astemizole. As to the method:
Another common side-effect marker is inhibition of human Ether-a-go-go Related Gene potassium (hERG) potassium channel (Inward rectifying, IKr) activity which can be fatal due to heart failure brought about by development of long QT syndrome. A useful preliminary screen to assess potential to affect this channel is assessed by measurement of inhibition of the binding of [3H]astemizole to cell membranes expressing hERG. Selected compounds are tested for this activity by measurement of inhibition @ 10 μM.
Compounds were sent to MDS Pharma for measurement of their inhibition @ 10 μM concentration of the binding of [^3H]astemizole to HEK-293 cells expressing human recombinant hERG.
A general note: The hERG channel carries a current that helps repolarise heart muscle cells.

The test system of data set [3] is 0.4 mm slices of rat hippocampus. In kind it is cell-based.
A further data set has as its system sodium channel. In kind it is biochemical, rat. Particulars: read-out: [14C]guanidine flux Mean IC50. The source says: The screening strategy is designed to select compounds with appropriate sodium channel blocking activity and low side effect liability. To this end all compounds are processed through the primary sodium channel assay (veratrine-evoked uptake of [^14C]guanidine into rat forebrain synaptosomes) and IC50 values computed from generated concentration-effect curves.
Following killing of animals by stunning and decapitation, the forebrain (whole brain less cerebellum/medulla) was rapidly dissected and transferred to a weighed tube containing ice-cold 0.25M sucrose.
Synaptosomes (heavy and light mitochondrial fraction containing synaptosomes) were prepared by transferring the forebrain (of known wet weight) to a glass Potter vessel to which 9 volumes ice-cold 0.25M sucrose had been added and homogenising, using a teflon pestle, by 8 ‘up and down strokes’ of a Braun Potter S motor driven homogeniser set to 900 rpm. The resulting homogenate was centrifuged at 1036×g at 4° for 10 min and the supernatant collected. The remaining pellet was resuspended, as above, in fresh ice-cold 0.25M sucrose and the centrifugation step repeated. The supernatant fractions were pooled and centrifuged at 40,000×g (average) at 4° for 15 min and the resulting pellet resuspended in the appropriate assay buffer at a concentration of 20-25 mg wet weight per ml appropriate assay buffer. […]

[4] abbreviates: extrapolated, read-out: Nach ([3H]BTX-B) (extrapolated IC50 μM).
Where [5] appears, read: read-out: [3H]BTX-B binding Extrapolated IC50.
Setting [6] is: extrapolated, read-out: hERG ([3H]astemizole) (extrapolated IC50 μM).
The mark [7] stands for this setting: hERG IC50 (μM) (extrapolated from 10 μM inh'n), extrapolated from 10 μM inhibition, slope assumed 1.0.
Setting [8] is: 1 h, read-out: Rat MES ED50 (very approx, from single 100 mg/kg dose), free base, one hour prior to shock.

The values that follow come from patent publication US9000155B2, “Cyclic triazo sodium channel blockers” (University of Greenwich, priority 2009, dated 2015).

Each structure is given as a SMILES string. Several values for one entry are separate records, joined by “and”; a condition that tells them apart may be missing. Equal entries are not always repeated. Structures can show the parent of a compound that is named as a salt. Where two headings read alike, the source gives them in different places. Bounds are passed on as bounds.

For `N=c1nc(N)c(-c2cccc(Cl)c2Cl)nn1CC(Cl)(Cl)Cl` [CEN-216, 5(3)-Amino-6-(2,3-dichlorophenyl)-2,3(2,5)-dihydro-3(5)-imino-2-(2,2,2-trichloroethyl)-1,2,4-triazine trifluoromethanesulphonate], the “Microsome stability (human) % metabolized (40 min incubation 37°)” value in “Microsome stability” is on record as 0%. The “MES Results (% protection)” value in data set [1] (1 mg/kg po) is recorded as 0%; in data set [1] (3 mg/kg po), 0%; in data set [1] (10 mg/kg po), 80%; in data set [1] (30 mg/kg po) it was 100%; in data set [1] (100 mg/kg po) it was 100%. Also, the “Rat MES (anticonvulsant in vivo) % protection” value in data set [1] (10 mg/Kg (free base) po) came out at 80%. In addition, the ED50 in data set [1] (1 h, free base, dosed orally one hour prior to shock, read-out: Rat MES ED50 (effective dose to protect 50% of rats)) was around 9 mg/kg; in data set [1] (read-out: Rat MES ED50), 9 mg/kg. In addition, the “L-type Ca2+ % inhibition @ 10 μM” value in the data set on L-Type Calcium Channels (10 μM) worked out at 27%. In addition, the IC50 (as a rule, the midpoint of a concentration-inhibition curve) at L-Type Calcium Channels (extrapolated, read-out: extrapolated IC50 in L-type Calcium (phenylalkylamine site) binding assay) is 27 µM; at L-Type Calcium Channels (read-out: L-type Ca2+ IC50 (μM) (extrapolated from 10 μM inh'n), extrapolated from 10 μM inhibition, slope assumed 1.0), 27 µM; on Sodium Channel, Site 2 (setting [4]), 20 µM; on Sodium Channel, Site 2 (setting [5]) it was 13.8 µM; on hERG (setting [6]) it was 50 µM; on hERG (setting [7]) it was 73.3 µM. Moreover, the “[3H]BTX-B binding % inhibition (@ 10 μM)” value with Sodium Channel, Site 2 was found to be 42%. For the same compound, the “duration of action following po dose in mouse” value in data set [2] is listed as “long duration of action”. The “Mouse MES % protection” value in data set [2] (1 h prior to shock), in data set [2] (6 h prior to shock) and in data set [2] (24 h prior to shock) was 100% each time. Further, at hERG, the inhibition – broadly, the share of the control response that was lost under treatment – at 10 µM was determined as 12%.

For the compound `O=C1NC(=O)C(c2ccccc2)(c2ccccc2)N1` [DiPhenylHydantoin, Diphenylhydantoin sodium salt, reference compound], the “MES Results (% protection)” value in data set [1] (100 mg/kg po) was 80%. Besides, the “% protection (v 1 μM TTX) (mean ± sem)” value in data set [3] is 48%.

As for `Nc1nnc(-c2cccc(Cl)c2Cl)c(N)n1` [CEN-1, 3,5-Diamino-6-(2,3-dichlorophenyl)-1,2,4-triazine, reference compound], in “Microsome stability”, the “Microsome stability (human) % metabolized (40 min incubation 37°)” value turned out to be 20%. In addition, the “MES Results (% protection)” value in data set [1] (3 mg/kg po) is 60%; in data set [1] (10 mg/kg po), 100%; in data set [1] (25 mg/kg po), 100%. Further, the IC50 in the data set with sodium channel stood at 219 µM.

Consider `N=c1nc(N)c(-c2cccc(Cl)c2Cl)nn1CC(F)(F)C(F)F` [CEN-218], for which the “Rat MES (anticonvulsant in vivo) % protection” value in data set [1] (100 mg/Kg (free base) po) was 40 @ 100%; in data set [1] (100 mg/Kg (free base) po, listed as 218), 40%. In addition, the “MES Results (% protection)” value in data set [1] (100 mg/kg po) is listed as 40%. Further, in data set [1] (setting [8]), the ED50 was around 120 mg/kg. In the data set on Sodium Channel, Site 2, the “[3H]BTX-B binding % inhibition (@ 10 μM)” value came to 108%. In addition, the IC50 at Sodium Channel, Site 2 (setting [4]) was below 0.5 µM; on Sodium Channel, Site 2 (setting [5]), below 0.5 µM; at hERG (setting [6]) it was 40 µM; at hERG (setting [7]), 40 µM. Further, the inhibition at 10 µM at hERG is 20%.

For `NC1=N[C@H](O)[C@H]2[C@H]3O[C@]4(O)O[C@@H]([C@@H](O)[C@@]2(N1)[C@@H]4O)[C@]3(O)CO` [TTX, tetrodotoxin], in data set [3], the “% protection (v 1 μM TTX) (mean ± sem)” value came out at 100%.

As for `N=c1nc(N)c(-c2cccc(Cl)c2Cl)nn1CC(F)(F)C(F)(F)F` [CEN-217], the “Rat MES (anticonvulsant in vivo) % protection” value in data set [1] (100 mg/Kg (free base) po) was 60% and 60 @ 100%. Also, the “MES Results (% protection)” value in data set [1] (100 mg/kg po) came to 60%. Moreover, the ED50 in data set [1] (setting [8]) is around 80 mg/kg. Also, in the data set with Sodium Channel, Site 2, the “[3H]BTX-B binding % inhibition (@ 10 μM)” value worked out at 105%. The IC50 is below 0.5 µM at Sodium Channel, Site 2 (setting [4]); below 0.5 µM on Sodium Channel, Site 2 (setting [5]); 26 µM at hERG (setting [6]); 25.7 µM at hERG (setting [7]). Moreover, on hERG, the inhibition at 10 µM was 28%.

On to `N=c1nc(N)c(-c2cc(Cl)cc(Cl)c2Cl)nn1CC(Cl)(Cl)Cl` [CEN-248], for which the “Rat MES (anticonvulsant in vivo) % protection” value in data set [1] (30 mg/Kg (free base) po) is on record as 100% protection @ 30. Further, the “MES Results (% protection)” value in data set [1] (30 mg/kg po) amounted to 100%. Besides, the “[3H]BTX-B binding % inhibition (@ 10 μM)” value in the data set with Sodium Channel, Site 2 is 27%. The IC50 is 27 µM at Sodium Channel, Site 2 (setting [4]) and 27 µM on Sodium Channel, Site 2 (setting [5]).
